Tests used:
Assay type in all cases: in vivo
wild oat (Avena fatua) = assay: Test C postemergence greenhouse test, plant response rating 0-100
Summary of the method: (§1)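 Each weed species was grown in potting medium and sprayed after emergence, when 2–18 cm tall. Ratings, made by eye relative to control pots, were recorded 13–15 days later using a scale where 0 is no effect.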

kochia (Kochia scoparia) = assay: as above
Summary of the method: as §1

[1] = test system: chickweed (common chickweed, Stellaria media); assay: as above
Summary of the method: as §1

[2] = test system: Italian ryegrass (Lolium multiflorum); assay: Test C pre-/postemergence greenhouse test, plant response rating 0-100; settings: Postemergence
Summary of the method: (§2)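 Plants were treated either at seeding (soil of loam and sand) or as 2–18 cm seedlings in a sphagnum peat mix, using test chemicals in a surfactant-containing non-phytotoxic solvent. Visual assessment relative to controls followed 13–15 days later.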

soybean (Glycine max) = assay: as above; settings: Postemergence
Summary of the method: as §2

[3] = test system: giant foxtail (Setaria faberii); assay: as above; settings: Postemergence
Summary of the method: as §2

[4] = test system: velvetleaf (Abutilon theophrasti); assay: Test A pre-/postemergence greenhouse herbicide test, visual injury rating 0-100
Summary of the method: (§3)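 Planting in a loam and sand mixture preceded a directed preemergence soil spray; postemergence spray was applied concurrently to one- to two-leaf plants. After roughly 10 days under glass, injury is scored visually against untreated controls, 0–100.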

corn (Zea mays) = assay: as above
Summary of the method: as §3

[5] = test system: large (Lg) crabgrass (Digitaria sanguinalis); assay: as above
Summary of the method: as §3

[6] = test system: wheat (Triticum aestivum); assay: as above
Summary of the method: as §3

[7] = test system: giant foxtail (Setaria faberii); assay: as above
Summary of the method: as §3

[8] = test system: morningglory (Ipomoea spp.); assay: as above; settings: Preemergence
Summary of the method: as §3

[9] = test system: pigweed (Amaranthus retroflexus); assay: as above
Summary of the method: as §3

[10] = test system: barnyardgrass (Echinochloa crus-galli); assay: as above
Summary of the method: as §3

SMILES: CC(C)n1cc(C(=O)c2ccccc2)c(-c2cc(Cl)cc(Cl)c2)n1 [Compound 44]
- Plant response rating (0 to 100), Oat, Wild (wild oat (Avena fatua); 62 g ai/ha): 0
- Plant response rating (0 to 100), Oat, Wild (wild oat (Avena fatua); 125 g ai/ha): 0
- Plant response rating, Oat, Wild (wild oat (Avena fatua); 250 g ai/ha, scale 0 to 100): 0
- Plant response rating (0 to 100), Kochia (kochia (Kochia scoparia); 62 g ai/ha): 55
- Plant response rating (0 to 100), Kochia (kochia (Kochia scoparia); 125 g ai/ha): 65
- Plant response rating, Kochia (kochia (Kochia scoparia); 250 g ai/ha, scale 0 to 100): 65
- Plant response rating (0 to 100), Chickweed ([1]; 31 g ai/ha): 20
- Plant response rating (0 to 100), Chickweed ([1]; 62 g ai/ha): 35
- Plant response rating, Chickweed ([1]; 250 g ai/ha, scale 0 to 100): 50
- Plant response rating (0 to 100), Ryegrass, Italian ([2]; 62 g ai/ha): 0
- Plant response rating (0 to 100), Ryegrass, Italian ([2]; 125 g ai/ha): 0
- Plant response rating, Ryegrass, Italian ([2]; 250 g ai/ha, scale 0 to 100): 0
- Plant response rating (0 to 100), Soybean (soybean (Glycine max); 62 g ai/ha): 5
- Plant response rating (0 to 100), Soybean (soybean (Glycine max); 125 g ai/ha): 5
- Plant response rating, Soybean (soybean (Glycine max); 250 g ai/ha, scale 0 to 100): 5
- Plant response rating (0 to 100), Foxtail, Giant ([3]; 31 g ai/ha): 0
- Plant response rating (0 to 100), Foxtail, Giant ([3]; 62 g ai/ha): 0
- Plant response rating (0 to 100), Foxtail, Giant ([3]; 125 g ai/ha): 0
- Plant response rating, Foxtail, Giant ([3]; 250 g ai/ha, scale 0 to 100): 20
- Plant response rating (0 to 100 scale), Velvetleaf ([4]; Postemergence, 125 g ai/ha): 90
- Plant response rating (0 to 100 scale), Velvetleaf ([4]; Postemergence, 500 g ai/ha): 90
- Velvetleaf plant response rating (0 = no effect, 100 = complete control) ([4]; Preemergence, 125 g ai/ha): 20
- Plant response rating (0 to 100 scale), Velvetleaf ([4]; Preemergence, 500 g ai/ha): 40
- Plant response rating (0 to 100 scale), Corn (corn (Zea mays); Postemergence, 125 g ai/ha): 0
- Plant response rating (0 to 100 scale), Corn (corn (Zea mays); Postemergence, 500 g ai/ha): 0
- Corn plant response rating (0 = no effect, 100 = complete control) (corn (Zea mays); Preemergence, 125 g ai/ha): 0
- Plant response rating (0 to 100 scale), Corn (corn (Zea mays); Preemergence, 500 g ai/ha): 0
- Plant response rating (0 to 100 scale), Crabgrass, Large ([5]; Postemergence, 125 g ai/ha): 0
- Plant response rating (0 to 100 scale), Crabgrass, Large ([5]; Postemergence, 500 g ai/ha): 0
- Crabgrass, Large plant response rating (0 = no effect, 100 = complete control) ([5]; Preemergence, 125 g ai/ha): 0
- Plant response rating (0 to 100 scale), Crabgrass, Large ([5]; Preemergence, 500 g ai/ha): 0
- Plant response rating (0 to 100 scale), Wheat ([6]; Postemergence, 125 g ai/ha): 0
- Plant response rating (0 to 100 scale), Wheat ([6]; Postemergence, 500 g ai/ha): 0
- Wheat plant response rating (0 = no effect, 100 = complete control) ([6]; Preemergence, 125 g ai/ha): 0
- Plant response rating (0 to 100 scale), Wheat ([6]; Preemergence, 500 g ai/ha): 0
- Plant response rating (0 to 100 scale), Foxtail, Giant ([7]; Postemergence, 125 g ai/ha): 0
- Plant response rating (0 to 100 scale), Foxtail, Giant ([7]; Postemergence, 500 g ai/ha): 0
- Foxtail, Giant plant response rating (0 = no effect, 100 = complete control) ([7]; Preemergence, 125 g ai/ha): 0
- Plant response rating (0 to 100 scale), Foxtail, Giant ([7]; Preemergence, 500 g ai/ha): 0
- Morningglory plant response rating (0 = no effect, 100 = complete control) ([8]; 125 g ai/ha): 0
- Plant response rating (0 to 100 scale), Morningglory ([8]; 500 g ai/ha): 0
- Plant response rating (0 to 100 scale), Pigweed ([9]; Postemergence, 125 g ai/ha): 80
- Plant response rating (0 to 100 scale), Pigweed ([9]; Postemergence, 500 g ai/ha): 100
- Pigweed plant response rating (0 = no effect, 100 = complete control) ([9]; Preemergence, 125 g ai/ha): 0
- Plant response rating (0 to 100 scale), Pigweed ([9]; Preemergence, 500 g ai/ha): 70
- Plant response rating (0 to 100 scale), Barnyardgrass ([10]; Postemergence, 125 g ai/ha): 0
- Plant response rating (0 to 100 scale), Barnyardgrass ([10]; Postemergence, 500 g ai/ha): 0
- Barnyardgrass plant response rating (0 = no effect, 100 = complete control) ([10]; Preemergence, 125 g ai/ha): 0
- Plant response rating (0 to 100 scale), Barnyardgrass ([10]; Preemergence, 500 g ai/ha): 0

Source: patent US10167262B2, “Herbicidal substituted 3-arylpyrazoles” (FMC CORPORATION, priority 2014, dated 2019)
